These results are taken from ChEMBL document CHEMBL1201862, “PubChem BioAssay data set” (2004).

Some test systems named below: CCRF-CEM; HOP-62; HOP-92; Hs-578T; IGROV-1; M14; MDA-MB-231; NCI-H226; NCI-H460; OVCAR-3; OVCAR-4; PC-3; SF-268; SF-295; SK-MEL-28; U-251; UACC-257; SNB-75; UACC-62.
Common to all, as to experiment: DTP human tumour cell line panel, 48 h

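These data come from cells grown in 96-well plates and exposed to compound for 48 hours at five concentrations. At the GI50, growth is halved.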 Activity calls are given as the source filed them. Rule as the data show it: active = GI50 up to about 1.1 µM and inactive = higher.

Regarding `O=[N+]([O-])c1ccc(/C=N/n2c(S)nnc2CCc2nnc(S)n2/N=C/c2ccc([N+](=O)[O-])o2)o1`, the GI50 with CCRF-CEM is 20 µM (inactive); with HOP-62, 24 µM (inactive); in the test on HOP-92, 17.2 µM (inactive); in the test on Hs-578T, 25.5 µM (inactive); in the test on IGROV-1 it was 44.3 µM (inactive); in the test with M14 it was 19.2 µM (inactive). Also, the GI50 was 24.7 µM (inactive) with MDA-MB-231; > 100 µM (inactive) in the test with NCI-H226; 84.5 µM (inactive) in the test with NCI-H460; 24.6 µM (inactive) in the test on OVCAR-3; 19.3 µM (inactive) in the test with OVCAR-4; 82.6 µM (inactive) in the test with PC-3. Also, the GI50 in the test with SF-268 is 22.3 µM (inactive); in the test on SF-295, > 100 µM (inactive); in the test with SK-MEL-28, 16.6 µM (inactive); in the test with U-251, 20 µM (inactive); with UACC-257, 22.4 µM (inactive).

Turning to `Clc1ccc(Cl)c(/N=N\c2cc3c4c(c2)CCN4CCC3)c1`, the GI50 in the test with CCRF-CEM, with HOP-62, with HOP-92, in the test on Hs-578T, in the test with IGROV-1 and with M14 was > 10 µM (inactive) throughout. Besides, the GI50 in the test on MDA-MB-231, in the test on NCI-H226, in the test on NCI-H460, in the test on OVCAR-3, in the test with OVCAR-4 and in the test on PC-3 was > 10 µM (inactive) each time. Further, the GI50 in the test with SF-268, in the test with SF-295, in the test with SK-MEL-28, with SNB-75, in the test with U-251 and in the test on UACC-257 was > 10 µM (inactive) in each case. The GI50 in the test on UACC-62 was > 10 µM (inactive).

In the case of `COc1cc(OC)c(C2c3cc4c(cc3OC(N3CCOCC3)C2C)OCO4)c(OC)c1` (configuration not stated), the GI50 in the test with CCRF-CEM was 33.8 µM (inactive); in the test with HOP-62, > 100 µM (inactive); in the test on Hs-578T, 2.45 µM (inactive); in the test with IGROV-1, 22.1 µM (inactive); with M14 it was 53.1 µM (inactive); with NCI-H460 it was 16.4 µM (inactive). The GI50 with OVCAR-3 was 7.29 µM (inactive); in the test on PC-3 it was 42.3 µM (inactive); in the test on SF-268 it was 20.5 µM (inactive); in the test with SF-295, 14.7 µM (inactive); with SK-MEL-28, > 100 µM (inactive); in the test with SNB-75, 16.4 µM (inactive). The values for the GI50 in the test with UACC-257 and with UACC-62 were 78.7 µM (inactive) and 29.9 µM (inactive), respectively.

Regarding `COC1=CC(=Nc2c(Cl)cc(Cl)cc2OC(=O)c2ccc([N+](=O)[O-])cc2)C=C(OC)C1=O`, the GI50 is 2.87 µM (inactive) with CCRF-CEM; 21.5 µM (inactive) with HOP-62; 5.62 µM (inactive) in the test with HOP-92; 14.5 µM (inactive) in the test on IGROV-1; 13 µM (inactive) in the test with M14; 15.2 µM (inactive) with NCI-H226. Further, the GI50 is 14.4 µM (inactive) in the test on NCI-H460; 8.67 µM (inactive) in the test with OVCAR-3; 10 µM (inactive) in the test on OVCAR-4; 9.64 µM (inactive) in the test with SF-268; 11.5 µM (inactive) in the test with SF-295; 16.7 µM (inactive) in the test with SK-MEL-28. Also, the GI50 in the test on SNB-75 was 14.2 µM (inactive); in the test on U-251, 13.8 µM (inactive); in the test on UACC-257 it was 11.7 µM (inactive); in the test with UACC-62 it was 4.26 µM (inactive).

For the compound `CC1=NOC(=O)/C1=C/c1ccccc1O`, the GI50 in the test on CCRF-CEM, with HOP-62, in the test on HOP-92, with IGROV-1, in the test on M14 and with NCI-H226 was > 100 µM (inactive) each time. Besides, the GI50 with NCI-H460, with OVCAR-3, in the test with OVCAR-4, with SF-268, in the test on SF-295 and in the test on SK-MEL-28 was > 100 µM (inactive) each time. The GI50 in the test with SNB-75, with U-251, in the test on UACC-257 and with UACC-62 was > 100 µM (inactive) in each case.

Turning to `COc1c(C(=O)/C(=N/Nc2ccc(C(=O)O)cc2)C(C)=O)c(O)cc2occc12`, the GI50 with CCRF-CEM was > 100 µM (inactive); with HOP-62, > 100 µM (inactive); in the test on HOP-92, 43.4 µM (inactive); in the test on Hs-578T, > 100 µM (inactive); in the test with IGROV-1, > 100 µM (inactive); with M14, > 100 µM (inactive). Further, the GI50 with MDA-MB-231 was > 100 µM (inactive); in the test with NCI-H226, > 100 µM (inactive); in the test with NCI-H460 it was 82 µM (inactive); in the test with OVCAR-3 it was > 100 µM (inactive); in the test with PC-3 it was > 100 µM (inactive); in the test with SF-268, > 100 µM (inactive). Also, the GI50 in the test with SF-295 was 82.8 µM (inactive); in the test on SK-MEL-28, > 100 µM (inactive); in the test with SNB-75 it was 50.7 µM (inactive); with U-251, > 100 µM (inactive); in the test with UACC-257 it was > 100 µM (inactive); in the test with UACC-62, > 100 µM (inactive).

For the compound `Cn1ccnc1S/C(=C\C=C(C#N)C#N)c1ccc(Cl)cc1`, the GI50 is 0.126 µM (active) in the test on CCRF-CEM; 4.17 µM (inactive) with HOP-62; 1.31 µM (inactive) in the test on HOP-92; 4.38 µM (inactive) with Hs-578T; 2.69 µM (inactive) in the test with IGROV-1; 0.993 µM (active) with M14. Moreover, the GI50 in the test on NCI-H460 was 7.33 µM (inactive); with OVCAR-3, 2.22 µM (inactive); with OVCAR-4 it was 4.09 µM (inactive); in the test with PC-3, 1.6 µM (inactive); with SF-268, 1.84 µM (inactive); with SF-295, 2.87 µM (inactive). For the same compound, the GI50 is 4.06 µM (inactive) with SK-MEL-28; 5.37 µM (inactive) in the test on SNB-75; 2.82 µM (inactive) with U-251; 2.1 µM (inactive) with UACC-257; 2.34 µM (inactive) in the test with UACC-62.

`CC(=O)OCC(C)C1=C(OC(C)=O)C(=O)C2(C)C/C=C(/C)CC/C=C(\C)CCC(OC(C)=O)C(C)CCC12` (configuration not stated): the GI50 in the test with CCRF-CEM is 22.4 µM (inactive); in the test on HOP-62, 14.2 µM (inactive); in the test on HOP-92 it was 7.23 µM (inactive); in the test on Hs-578T, 25.4 µM (inactive); in the test with IGROV-1, 14.4 µM (inactive); in the test on M14, 16.6 µM (inactive). In addition, the GI50 in the test with MDA-MB-231 was 14.3 µM (inactive); in the test on NCI-H460 it was 3.55 µM (inactive); in the test on OVCAR-4, 17.4 µM (inactive); in the test on PC-3, 14.3 µM (inactive); in the test on SF-268, 15.4 µM (inactive); in the test with SF-295 it was 15.8 µM (inactive). Moreover, the GI50 with SK-MEL-28 was 17.3 µM (inactive); in the test with SNB-75, 24.7 µM (inactive); in the test on U-251, 17.1 µM (inactive); in the test with UACC-257 it was 17.5 µM (inactive); in the test on UACC-62 it was 14.4 µM (inactive).

For `C=CCOC(=O)C1CCC(=O)N1C(=O)C(Cl)Cl` (configuration not stated), the GI50 in the test with CCRF-CEM, in the test on HOP-62, in the test on HOP-92, in the test on IGROV-1, in the test on M14 and with NCI-H226 was > 100 µM (inactive) throughout. In addition, the GI50 with NCI-H460, in the test with OVCAR-3, in the test with OVCAR-4, in the test with SF-268, in the test with SF-295 and in the test on SK-MEL-28 was > 100 µM (inactive) each time. In addition, the GI50 in the test on SNB-75 is 61.8 µM (inactive); in the test on U-251, > 100 µM (inactive); in the test on UACC-257 it was > 100 µM (inactive); in the test with UACC-62, > 100 µM (inactive).

On to `Cc1ccn2c(c1)nc1nc3ccccc3nc12`, for which the GI50 in the test with CCRF-CEM, with HOP-62, with HOP-92, in the test with IGROV-1, with M14 and with NCI-H226 was > 100 µM (inactive) each time. In addition, the GI50 in the test on NCI-H460, with OVCAR-3, with OVCAR-4, in the test on SF-268, with SF-295 and with SK-MEL-28 was > 100 µM (inactive) each time. The GI50 in the test with SNB-75 is 78.5 µM (inactive); with U-251, > 100 µM (inactive); in the test with UACC-257 it was > 100 µM (inactive); in the test on UACC-62, > 100 µM (inactive).

In the case of `CC(C)C(NCc1c(O)ccc2c(-c3ccccc3)cc(=O)oc12)C(=O)O` (configuration not stated), the GI50 in the test on CCRF-CEM, in the test with HOP-62, in the test on HOP-92, in the test on Hs-578T, in the test with IGROV-1 and with M14 was > 100 µM (inactive) each time. Besides, the GI50 with MDA-MB-231, in the test with NCI-H226, with NCI-H460, with OVCAR-3, in the test with OVCAR-4 and in the test on PC-3 was > 100 µM (inactive) in each case. For the same compound, the GI50 in the test on SF-268 was > 100 µM (inactive); in the test on SF-295, > 100 µM (inactive); in the test on SK-MEL-28, > 100 µM (inactive); in the test with SNB-75 it was 83.9 µM (inactive); in the test on U-251 it was > 100 µM (inactive); with UACC-257, > 100 µM (inactive). For the same compound, the GI50 in the test on UACC-62 is > 100 µM (inactive).

With `CC(=O)Oc1ccc2c(C)cc(=O)oc2c1OC(C)=O`, the GI50 with CCRF-CEM was 5.4 µM (inactive); in the test on HOP-62 it was 46.5 µM (inactive); in the test on Hs-578T, 24.2 µM (inactive); in the test with IGROV-1, 22.3 µM (inactive); with M14, 39.1 µM (inactive); in the test with MDA-MB-231 it was 48.9 µM (inactive). For the same compound, the GI50 in the test on NCI-H226 was 30.6 µM (inactive); in the test on OVCAR-3, 40.4 µM (inactive); with OVCAR-4, 46.8 µM (inactive); in the test on PC-3, 34.1 µM (inactive); in the test on SF-268, 25.3 µM (inactive); in the test on SF-295 it was 47.5 µM (inactive). Also, the GI50 is 33.9 µM (inactive) in the test with SK-MEL-28; 27 µM (inactive) with SNB-75; 35.2 µM (inactive) in the test on U-251; 17.7 µM (inactive) in the test with UACC-257; 49.1 µM (inactive) with UACC-62.

The term GI50 denotes the concentration at which growth is held to half of that of the control.
